Values after ≈ are worked out from the molar mass of the structure shown. Peptide text beside a SMILES is read from it.
Experiments:
[1] = tested on: E. coli ATCC 25922; type: cell-based, Escherichia coli; conditions: for Antimicrobial activity (MIC) Experimental values: ATCC 25922; for MIC in MH medium: ATCC 25922, 16 h
Protocol: (§1) MIC: Minimal Inhibitory Concentration of AMPs in MH Medium Against E. coli ATCC 25922 Minimal inhibitory concentration (MIC) represents for the lowest concentration of peptide at which the AMP can still kill 90% of the bacteria. All MIC tests for WLK peptide series SEQ ID NO:1-13 were measured against Escherichia coli strain (ATCC 25922) in triplicate. Peptide concentration was determined by UV spectrophotometer (Ultrospec 1100 pro from Amersham Biosciences) at 280 nm with proper extinction coefficient. (Gill S. C. & Von Hippel P. H., Analytical biochemistry 1989, 182(2), 319-326). All of the samples were prepared from a stock solution containing peptides of concentrations 5, 2.5, 1.25, 0.625, 0.313, 0.156 and 0.078 mg/ml. Bacteria culture in the middle of logarithmic growth at a concentration of 5×10^5 colony-formation unit (CFU) and protein solution at the aforementioned concentrations were uniformly mixed in a 96-well culture plate (each well contains 1 microliter protein solution and 99 microliter of bacteria culture). After growing the culture at 37° C. for 16 hours, how bacterial growth was inhibited was measured by Thermo Max (Molecular Devices) at the wavelength of 600 nm. The MIC values were determined by triplicates of the above experiments.

[2] = tested on: Escherichia coli strain (ATCC 25922); type: cell-based
Protocol: as §1, with “Minimal” for “MIC: Minimal Inhibitory Concentration of AMPs in MH Medium Against E. coli ATCC 25922 Minimal”

[3] = tested on: human red blood cells; type: cell-based
Protocol: Hemolysis Activity Test Hemolytic activity was determined by measuring hemolysis of human red blood cells. Fresh red blood cells and PBS buffer solution (pH 7.4) was mixed uniformly and centrifugated by relative centrigugal force (RCF) 800 g rpm for 10 minutes, washed and then diluted by the PBS buffer solution to 10% concentration by volume (v/v). All the tested peptides were prepared with different concentrations (800, 400, 200, 100, 50, 25, 12.5, 6.25, 3.13, 1.56 μg/ml) and then mixed with PBS buffer in 1:1 ratio (100 μL:100 μL) by volume. In 1:1 ratio (v/v), the red blood cell solution was mixed with a PBS buffer, with or without 2% Triton X-100, respectively as the positive and negative controls. All samples to be tested were settled at 37° C. environment for 1 hour. Next, the specimen was centrifuged under RCF 800 g for 10 minutes and the absorbance of its supernatant was measured at a wavelength of 450 nm. The hemolytic activity would be measured according to the following formula: “% hemolysis=[Asample−APBS]/[ATritonX100−APBS]”

| Antimicrobial activity (MIC) Experimental values [1] [mg/L] | MIC in MH medium [1] [mg/L] | MIC in LYM medium, NaCl 50 [2] [mg/L] | MIC in LYM medium, NaCl 100 [2] [mg/L] | MIC in LYM medium, NaCl 200 [2] [mg/L] | MIC in LYM medium, NaCl 300 [2] [mg/L] | MIC in LYM medium, control [2] [mg/L] | Structure (SMILES) | hemolytic activity on human erythrocytes [3] |
| --- | --- | --- | --- | --- | --- | --- | --- | --- |
| 1.56 | 1.56 (≈ 0.86 µM) | 1.56 (≈ 0.86 µM) | 3.13 (≈ 1.73 µM) | 3.13 (≈ 1.73 µM) | 3.13 (≈ 1.73 µM) | 1.56 (≈ 0.86 µM) | CC(C)C[C@H](NC(=O)[C@H](Cc1c[nH]c2ccccc12)NC(=O)[C@H](CCCCN)NC(=O)[C@H](CC(C)C)NC(=O)[C@H](Cc1c[nH]c2ccccc12)NC(=O)[C@H](CCCCN)NC(=O)[C@H](CC(C)C)NC(=O)[C@H](Cc1c[nH]c2ccccc12)NC(=O)[C@H](CCCCN)NC(=O)[C@H](CCCCN)NC(=O)[C@H](CCCCN)NC(=O)[C@@H](N)CCCCN)C(=O)N[C@@H](CCCCN)C(=O)O [SEQ ID NO. 12, KKKKWLKWLKWLK] (H-KKKKWLKWLKWLK-OH) | lower hemolytic activity |
| 1.56 | 1.56 (≈ 0.86 µM) | 1.56 (≈ 0.86 µM) | 1.56 (≈ 0.86 µM) | 1.56 (≈ 0.86 µM) | 3.13 (≈ 1.73 µM) | 1.56 (≈ 0.86 µM) | CC(C)C[C@H](NC(=O)[C@H](Cc1c[nH]c2ccccc12)NC(=O)[C@H](CCCCN)NC(=O)[C@H](CC(C)C)NC(=O)[C@H](Cc1c[nH]c2ccccc12)NC(=O)[C@H](CCCCN)NC(=O)[C@H](CC(C)C)NC(=O)[C@H](Cc1c[nH]c2ccccc12)NC(=O)[C@H](CCCCN)NC(=O)[C@H](CCCCN)NC(=O)[C@H](CCCCN)NC(=O)[C@H](CCCCN)NC(=O)[C@@H](N)CCCCN)C(=O)O [SEQ ID NO. 11, KKKKKWLKWLKWL] (H-KKKKKWLKWLKWL-OH; N-terminus and C-terminus assumed) | – |
| 12.5 | 12.5 (≈ 6.89 µM) | 3.13 (≈ 1.73 µM) | 6.25 (≈ 3.45 µM) | 12.5 (≈ 6.89 µM) | 50 (≈ 27.6 µM) | 3.13 (≈ 1.73 µM) | CC(C)C[C@H](NC(=O)[C@H](Cc1c[nH]c2ccccc12)NC(=O)[C@H](CCCCN)NC(=O)[C@H](CCCCN)NC(=O)[C@H](CCCCN)NC(=O)[C@H](CCCCN)NC(=O)[C@H](CCCCN)NC(=O)[C@H](CC(C)C)NC(=O)[C@H](Cc1c[nH]c2ccccc12)NC(=O)[C@H](CCCCN)NC(=O)[C@@H](N)CC(C)C)C(=O)N[C@@H](CCCCN)C(=O)N[C@@H](Cc1c[nH]c2ccccc12)C(=O)O [SEQ ID NO. 7, LKWLKKKKKWLKW] (H-LKWLKKKKKWLKW-OH; N-terminus and C-terminus assumed) | – |

Source: US10810329B2, “In silico design of peptides equilibrated in a lipid bilayer with partition free energies indicating probability of antimicrobial activity” (priority 2015, dated 2020)
